Measured values published in patent publication US8710071B2, “Compounds, compositions and methods for reducing lipid levels” (CVI Pharmaceuticals Limited, priority 2008, dated 2014).

Tests used:
[1] = system: acetyl coenzyme A carboxylase (ACC); experiment: ACC phosphorylation in HepG2 cells, Western blot; type: cell-based, human; settings: 20 μM, 1, 2, and 3 days (FIG. 12)
Protocol: HepG2 cells were treated with 20 μg/ml14R-(+)-THP for 0.5, 2, or 8 hours. Cells were lysed, and 50 μg protein from each sample was subjected to SDS-PAGE, followed by Western blotting using anti-phosphorylated ACC (Cell Signaling) and subsequently reprobed with antibody against β-actin.
(§1) Cells were harvested after 1, 2, and 3 days treatment and western blot analysis was conducted using antibodies directed to LDLR and PCSK9. Chicken anti-LDLR was purchased from Abeam, the mouse anti-PCSK9 was purchased from Cayman Chemicals, and anti-pACC was purchased from Cell Signaling.

LDLR = LDLR protein expression in HepG2 cells, Western blot; type: cell-based, human; settings: 20 μM, 1, 2, and 3 days
Protocol: as §1
(§2) To determine whether the stimulatory effects of statins on LDLR protein expression could be enhanced by some new compounds invented herein, HepG2 cells were untreated or treated with a low dose of rosuvastatin (RSV) at 0.3 and 1 uM concentration in the absence or the presence of Compound 127(+), or treated with low concentrations of Compound 127(+) alone for 2 days. Western blot analysis was conducted to examine LDLR and PCSK9 protein levels. Compound 127(+) is the single enantiomer of compound 127 with a positive optical rotation. […] Furthermore, the inducing effects of RSV on PCSK9 protein levels were anatagonized by compound 127(+).
(§3) Chicken anti-LDLR was purchased from Abeam and the mouse anti-PCSK9 was purchased from Cayman Chemicals. HepG2 cells cultured in 60-mm dishes were incubated overnight in medium containing 0.5% fetal bovine serum prior to the addition of compounds at 20 uM concentration for 1-3 days. Total cell lysate was isolated and 50 μg of protein was separated on SDS-PAGE and transferred to nitrocellulose membrane for immunoblotting with anti-LDLR, anti-PCSK9, and anti-p-ACC.

PCSK9 = PCSK9 protein expression in HepG2 cells, Western blot; type: cell-based, human; settings: 20 μM, 1, 2, and 3 days
Protocol: as §1, §2, §3

hyperlipidemic rabbits [2] = experiment: Lipid lowering effects and blood chemistry in hyperlipidemic rabbits; settings: for Body weight: after 14 days of drug treatment; for Body weight / ALP / ALT / AST / CK / CREA / GLU / HDL-C / LDH / LDL-C / TC / TG: mean, n = 6; for serum total cholesterol levels, treatment day 0: day 0 (before the drug treatment), n = 6, in mmol/L (unit assumed); for serum total cholesterol levels, treatment day 0 / serum total cholesterol levels, treatment day 4 / serum total cholesterol levels, treatment day 7 / serum total cholesterol levels, treatment day 10 / serum total cholesterol levels, treatment day 14: mean ± SD; for serum total cholesterol levels, treatment day 4: day 4, oral gavage once a day; for serum total cholesterol levels, treatment day 4 / serum total cholesterol levels, treatment day 7: 128(+)/128(−) 30 mg/kg, SMV/ATV 3 mg/kg; for serum total cholesterol levels, treatment day 7: day 7, oral gavage once a day; for serum total cholesterol levels, treatment day 10: day 10, doses increased after day 7 to 60 mg/kg (128(+)/128(−)) and 10 mg/kg (SMV/ATV), in mmol/L (unit assumed); for serum total cholesterol levels, treatment day 14: day 14, doses increased after day 7 to 60 mg/kg (128(+)/128(−)) and 10 mg/kg (SMV/ATV); for ALP / ALT / AST / CK / CREA / GLU / HDL-C / LDH / LDL-C / TC / TG: serum after 14 days of drug treatment
Protocol: (§4) Forty-two male Japanese rabbits were fed the cholesterol enriched rabbit diet for two weeks to induce hypercholesterolemia. […] Serum samples were collected at day 0 (before the drug treatment) and day 7. […] All tested animals were sacrified at the end of a total of 14 days treatment and serum samples were analyzed for TC, LDL-C, TG, and HDL-C. In addition to lipid profiles, a number of biochemical parameters were also analyzed to aseesee the effects of drug treatments on liver function, muscle function, kidney function, and heart function.

hyperlipidemic rabbits [3] = settings: rabbit, in vivo
Protocol: as §4

LDLR mRNA = LDLR mRNA expression in HepG2 cells, quantitative real-time RT-PCR; type: cell-based, human; settings: indicated concentrations, 24 hours (FIG. 15A)
Protocol: Activities of some compounds of Formulas I, II, III, and IV on LDLR mRNA expression were determined. HepG2 cells were treated with new compounds individually at a dose less than or equal to 10 μM for 24 hours. Total RNA was harvested for quantitative real-time RT-PCR analysis using the method described in Example 16B. […] In these experiments, berberine chloride was included for comparison.
The time-dependent effects of compounds of Formula I, II, III, and IV on the upregulation of LDLR mRNA and the inhibition of PCSK9 mRNA expression were examined (Horton J D, Cohen J C, Hobbs H I T. “Molecular biology of PCSK9: its role in LDL metabolism” TRENDS in Biochemical Sciences 2007; 32:71-77). HepG2 cells were treated with new compounds individually at 20 uM dose for 1 day, 2 day, and 3 days. Total RNA was isolated and 2 μg was used to generate cDNA in a reaction containing random primers and M-MLV at 37° C. for 1 hour in a volume of 25 μl. Real-time PCR was performed on the cDNA using MCEP REALPLEX 2 SYSTEM (Eppendorf) and Universal MasterMix (Applied Biosystems). Human LDLR, PCSK9, and GAPDH Pre-Developed TaqMan Assay Reagents (Applied Biosystems) were used to assess the levels of mRNA expressions in HepG2. The levels of LDLR mRNA or PCSK9 mRNA were normalized to that of GAPDH. Each RNA samples was assayed in triplicate. The abundance of LDLR mRNA or PCSK9 mRNA in untreated cells was defined as 1, and the amounts of LDLR mRNA or PCSK9 from compound-treated cells were plotted relative to that value (FIG. 10). The data shown are mean±s.d.
Total RNA was harvested for quantitative real-time RT-PCR analysis using method described in Examples 16B.
The effects of 23 compounds on the mRNA expressions of LDLR and PCSK9 were examined using quantitative real-time RT-PCR assays. HepG2 cells were treated with various compounds at 10 and 40 uM concentrations for 24 hours. Total RNA was isolated and […] was used to generate cDNA in a reaction containing random primers and M-MLV at 37° C. for 1 h in a volume of 25 μl. Real-time PCR was performed on the cDNA using MCEP REALPLEX 2 SYSTEM (Eppendorf) and Universal MasterMix (Applied Biosystems). Human LDLR, PCSK9, and GAPDH Pre-Developed TaqMan Assay Reagents (Applied Biosystems) were used to assess the levels of mRNA expressions in HepG2. The levels of LDLR and PCSK9 mRNA were normalized to that of GAPDH. Each RNA samples was assayed in duplicate. The fold activity was calculated by dividing mRNA abundance in compound treated cells with that of control.

PCSK9 mRNA = PCSK9 mRNA expression in HepG2 cells, quantitative real-time RT-PCR; type: cell-based, human; settings: indicated concentrations, 24 hours (FIG. 15B)
Protocol: The time-dependent effects of compounds of Formula I, II, III, and IV on the upregulation of LDLR mRNA and the inhibition of PCSK9 mRNA expression were examined (Horton J D, Cohen J C, Hobbs H I T. “Molecular biology of PCSK9: its role in LDL metabolism” TRENDS in Biochemical Sciences 2007; 32:71-77). HepG2 cells were treated with new compounds individually at 20 uM dose for 1 day, 2 day, and 3 days. Total RNA was isolated and 2 μg was used to generate cDNA in a reaction containing random primers and M-MLV at 37° C. for 1 hour in a volume of 25 μl. Real-time PCR was performed on the cDNA using MCEP REALPLEX 2 SYSTEM (Eppendorf) and Universal MasterMix (Applied Biosystems). Human LDLR, PCSK9, and GAPDH Pre-Developed TaqMan Assay Reagents (Applied Biosystems) were used to assess the levels of mRNA expressions in HepG2. The levels of LDLR mRNA or PCSK9 mRNA were normalized to that of GAPDH. Each RNA samples was assayed in triplicate. […]
Total RNA was harvested for quantitative real-time RT-PCR analysis using method described in Examples 16B. […]
The effects of 23 compounds on the mRNA expressions of LDLR and PCSK9 were examined using quantitative real-time RT-PCR assays. […] The fold activity was calculated by dividing mRNA abundance in compound treated cells with that of control.

COc1ccc2c(c1)CCN1Cc3c(ccc(OC)c3OS(=O)(=O)c3cccc(F)c3)CC21 (single isomer, unassigned) [128(+)]
phosphorylation of ACC [1]: induced ACC phosphorylation
LDLR protein levels (LDLR): effectively increased
expression of PCSK9 (protein) (PCSK9): strongly inhibited
Body weight (hyperlipidemic rabbits [2]): 2.6 kg
serum total cholesterol levels, treatment day 0 (hyperlipidemic rabbits [2]): 28.6 ± 6.7
serum total cholesterol levels, treatment day 4 (hyperlipidemic rabbits [2]): 31.9 ± 7.5
serum total cholesterol levels, treatment day 7 (hyperlipidemic rabbits [2]): 33.9 ± 7.2
serum total cholesterol levels, treatment day 10 (hyperlipidemic rabbits [2]): 33.8 ± 7.8
serum total cholesterol levels, treatment day 14 (hyperlipidemic rabbits [2]): 34.2 ± 7.4
ALP (hyperlipidemic rabbits [2]): 165.2 IU/L
ALT (hyperlipidemic rabbits [2]): 68.7 IU/L
AST (hyperlipidemic rabbits [2]): 20.8 IU/L
CK (hyperlipidemic rabbits [2]): 1172.3 U/L
CREA (hyperlipidemic rabbits [2]): 97.2 µmol/L
GLU (hyperlipidemic rabbits [2]): 7.9 mmol/L
HDL-C (hyperlipidemic rabbits [2]): 3.6 mmol/L
LDH (hyperlipidemic rabbits [2]): 47.7 IU/L
LDL-C (hyperlipidemic rabbits [2]): 29.7 mmol/L
TC (hyperlipidemic rabbits [2]): 34.2 mmol/L
TG (hyperlipidemic rabbits [2]): 1.0 mmol/L

COc1ccc2c(c1)CCN1Cc3c(ccc(OC)c3OS(=O)(=O)c3cccc(F)c3)CC21 (single isomer, unassigned) [128(−)]
phosphorylation of ACC [1]: induced ACC phosphorylation
LDLR protein levels (LDLR): effectively increased
expression of PCSK9 (protein) (PCSK9): strongly inhibited
adverse effect / toxicities (hyperlipidemic rabbits [3]): absence of any adverse effect
TC and LDL-C reduction (hyperlipidemic rabbits [2]; 14 days treatment, summary in words): strong TC and LDL-C reduction
Body weight (hyperlipidemic rabbits [2]): 2.7 kg
serum total cholesterol levels, treatment day 0 (hyperlipidemic rabbits [2]): 28.5 ± 6.3
serum total cholesterol levels, treatment day 4 (hyperlipidemic rabbits [2]): 29.9 ± 8.0
serum total cholesterol levels, treatment day 7 (hyperlipidemic rabbits [2]): 29.0 ± 7.9
serum total cholesterol levels, treatment day 10 (hyperlipidemic rabbits [2]): 27.9 ± 5.2
serum total cholesterol levels, treatment day 14 (hyperlipidemic rabbits [2]): 29.7 ± 4.9
ALP (hyperlipidemic rabbits [2]): 155.5 IU/L
ALT (hyperlipidemic rabbits [2]): 50.2 IU/L
AST (hyperlipidemic rabbits [2]): 20.8 IU/L
CK (hyperlipidemic rabbits [2]): 997.5 U/L
CREA (hyperlipidemic rabbits [2]): 105.2 µmol/L
GLU (hyperlipidemic rabbits [2]): 7.9 mmol/L
HDL-C (hyperlipidemic rabbits [2]): 3.5 mmol/L
LDH (hyperlipidemic rabbits [2]): 50.3 IU/L
LDL-C (hyperlipidemic rabbits [2]): 24.4 mmol/L
TC (hyperlipidemic rabbits [2]): 29.7 mmol/L
TG (hyperlipidemic rabbits [2]): 0.9 mmol/L

COc1cc2c(cc1OC)C1Cc3ccc(OC)c(OS(=O)(=O)c4ccccc4)c3CN1CC2 (centres unmarked) [Compound 91, 2,3,10-trimethoxy-5,6,7,8,13,13a-hexahydroisoquinolino[2,1-b]isoquinolin-9-yl benzenesulfonate]
LDLR mRNA expression (LDLR mRNA): dose-dependently increases
PCSK9 mRNA expression (PCSK9 mRNA): inhibits
